The source of these data is patent US9828339B2, “Biphenyl derivatives and methods for preparing same” (DONG-A ST CO., LTD, priority 2013, dated 2017).

As usually defined, the pKi is −log10 of the Ki, conventionally taken in molar units.

Test [1] has as its target T1, human muscarinic M3 receptor (Homo sapiens (Human), UniProt P20309). Briefly: Binding assay on human muscarinic M3 receptor ([3H]-methyl scopolamine displacement). The following applies: membranes overexpressing human M3 receptor, Ki from IC50 by Cheng-Prusoff, read-out: Binding Affinity to M3 Receptor, Ki. Put shortly: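 Displacement of [3H]-methyl scopolamine from membranes overexpressing human M3, in Tris-HCl, 25 °C, 120 min; filter-bound radioactivity counted. Nonspecific binding with 5 μM atropine; Ki from IC50 via Cheng-Prusoff.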

Test [2] has as its target T1, human muscarinic M3 receptor. In words: Antagonism assay on human muscarinic M3 receptor (carbachol-induced intracellular calcium, FLIPR Calcium 5, transfected Cos-7 cells). Type of test: cell-based. The following applies: functional inhibitory constant; carbachol-induced intracellular calcium in Cos-7 cells transfected with human M3 receptor. How it is done:
[Experimental Example 2] Antagonism Assay on Human Muscarinic M3 Receptor
The antagonism assay for various compounds of the present invention was conducted on antagonism to human M3 receptor in Cos-7 cells that was transfected with plasmid coding human muscarinic M3 receptor. Test compounds in various concentrations were pre-treated to the cells for 3 minutes, and then the changes of intracellular calcium were measured after treating the same with carbachol (i.e. muscarinic receptor agonist). The FLIPR® Calcium 5 assay (Molecular Devices) and Flex3 device (Molecular Devices) were used to measure concentration of calcium. Amounts of calcium before and after carbachol treatment were set as 0% and 100% respectively. Inhibition rates (%) by the compounds for increase in intracellular calcium by carbachol were calculated. The antagonistic potency of the test compounds on human muscarinic M3 receptor was calculated as the functional inhibitory constant (Ki), which can be calculated from concentration (IC50) of compound inhibiting 50% of activity of carbachol according to Cheng and Prusoff equation.

Test [3] deals with rhythmic bladder contractions. In words: Rhythmic bladder contractions in rats (in vivo). On the set-up: species or system rat. The following applies: 0.3 mpk, intravenous, female Sprague-Dawley rats; amplitude reduction of bladder contractions. The source says: [Experimental Example 3] Experiment on Rhythmic Bladder Contractions in Rats (In Vivo)
Female Sprague-Dawley rat was halothane-anesthetized, and a polyethylene catheter was inserted through urethra lay down straight and fixed. Urine in bladder was excreted through the catheter by gently massaging abdomen of the rat, and then removed. A three-way stopcock was connected to the catheter and a pressure transducer was connected to one side of the three-way stopcock to measure pressure, and a syringe was installed at the other side to inject 37° C. of saline solution. The saline solution was slowly injected until regular bladder contractions occurred repeatedly. When regular bladder contractions occurred stably, test compounds were administered intravenously through the tail vein. Inhibitory effect of the test compounds was evaluated by measuring degree of amplitude reduction of bladder contractions.

The structures appear in SMILES notation. pKi: −log10 of the molar value.

T1 sequence (P20309 whole entry): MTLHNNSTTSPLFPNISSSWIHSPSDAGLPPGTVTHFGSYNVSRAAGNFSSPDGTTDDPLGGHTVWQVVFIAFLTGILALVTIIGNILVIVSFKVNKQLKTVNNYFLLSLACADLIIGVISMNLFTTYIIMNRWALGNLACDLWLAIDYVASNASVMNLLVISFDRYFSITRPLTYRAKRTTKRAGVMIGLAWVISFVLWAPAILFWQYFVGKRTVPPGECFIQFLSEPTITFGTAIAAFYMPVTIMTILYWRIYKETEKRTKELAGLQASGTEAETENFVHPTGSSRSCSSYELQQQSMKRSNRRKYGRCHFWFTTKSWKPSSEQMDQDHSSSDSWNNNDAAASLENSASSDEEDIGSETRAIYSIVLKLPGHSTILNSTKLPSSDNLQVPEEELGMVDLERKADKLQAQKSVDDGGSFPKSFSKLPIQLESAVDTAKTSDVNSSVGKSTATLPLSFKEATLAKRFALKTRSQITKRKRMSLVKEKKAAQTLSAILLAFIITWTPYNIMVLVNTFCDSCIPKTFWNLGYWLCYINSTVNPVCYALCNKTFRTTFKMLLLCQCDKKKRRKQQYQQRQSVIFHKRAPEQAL

Take `CN1CCCC1CCOC(=O)Nc1ccccc1-c1cc(F)cc(F)c1` (centres unmarked) [Example 2, 2-(1-methylpyrrolidin-2-yl)ethyl(3′,5′-difluoro-[1,1′-biphenyl]-2-yl)carbamate]: the pKi in test [1] is 8.06; in test [2] it was 8.22. Also, in test [3], the “Inhibition of Rhythmic bladder contraction in rats” value (“Inhibition” below) is recorded as 20.1 ± 3.1%.

As to `CN1CCCC1CCOC(=O)Nc1ccccc1-c1cccc(F)c1` (centres unmarked) [Example 4, 2-(1-methylpyrrolidin-2-yl)ethyl(3′-fluoro-[1,1′-biphenyl]-2-yl)carbamate], the pKi in test [1] is 8.53; in test [2], 8.47. Besides, the “Inhibition” value in test [3] is on record as 22.3 ± 4.9%.

For the compound `CN1CCCC1CCOC(=O)Nc1ccccc1-c1cccc(Cl)c1` (centres unmarked) [Example 8, 2-(1-methylpyrrolidin-2-yl)ethyl(3′-chloro-[1,1′-biphenyl]-2-yl)carbamate], the pKi in test [1] was 8.88; in test [2], 8.52. Besides, in test [3], the “Inhibition” value is reported as 23.2 ± 2.3%.

In the case of `CN1CCCC1CCOC(=O)Nc1ccc(F)cc1-c1ccc(F)cc1` (centres unmarked) [Example 19, 2-(1-methylpyrrolidin-2-yl)ethyl(4′,5-difluoro-[1,1′-biphenyl]-2-yl)carbamate], the pKi in test [1] is 8.38; in test [2], 8.72. For the same compound, the “Inhibition” value in test [3] was 12.8 ± 3.0%.

On to `Cc1cccc(-c2cc(F)ccc2NC(=O)OCCC2CCCN2C)c1` (centres unmarked) [Example 22, 2-(1-methylpyrrolidin-2-yl)ethyl(5-fluoro-3′-methyl-[1,1′-biphenyl]-2-yl)carbamate], for which the pKi in test [1] was 8.42; in test [2], 8.62. Further, the “Inhibition” value in test [3] was 16.7 ± 1.7%.

Consider `CN1CCCC1CCOC(=O)Nc1ccccc1-c1ccccc1F` (centres unmarked) [Example 34, 2-(1-methylpyrrolidin-2-yl)ethyl(2′-fluoro-[1,1′-biphenyl]-2-yl)carbamate], for which the pKi in test [1] is 7.71; in test [2], 8.58. Further, the “Inhibition” value in test [3] is 20.1 ± 1.8%.

For `CN1CCCC1CCOC(=O)Nc1ccc(F)cc1-c1cc(F)cc(Cl)c1` (centres unmarked) [Example 52, 2-(1-methylpyrrolidin-2-yl)ethyl (3′-chloro-5,5′-difluoro-[1,1′-biphenyl]-2-yl)carbamate], the negative-log Ki (pKi) is 8.00 in test [1] and 8.91 in test [2]. The “Inhibition” value in test [3] stood at 10.8 ± 0.8%.

Turning to `Cc1ccc(-c2cc(F)ccc2NC(=O)OCCC2CCCN2C)cc1C` (centres unmarked) [Example 59, 2-(1-methylpyrrolidin-2-yl)ethyl(5-fluoro-3′,4′-dimethyl-[1,1′-biphenyl]-2-yl)carbamate], the pKi in test [1] was 8.19; in test [2] it was 8.62. Also, the “Inhibition” value in test [3] amounted to 11.6 ± 1.9%.

Take `CN1CCCC1CCOC(=O)Nc1ccc(Cl)cc1-c1ccccc1` (centres unmarked) [Example 66, 2-(1-Methylpyrrolidin-2-yl)ethyl (5-chloro-[1,1′-biphenyl]-2-yl)carbamate]: the pKi in test [1] is 8.16; in test [2] it was 8.51. In test [3], the “Inhibition” value is given as 12.0 ± 1.4%.

`CN1CCCC1CCOC(=O)Nc1ccc(Cl)cc1-c1cccc(Cl)c1` (centres unmarked) [Example 70, 2-(1-Methylpyrrolidin-2-yl)ethyl(3′,5-dichloro-[1,1′-biphenyl]-2-yl)carbamate]: the pKi in test [1] was 8.09; in test [2], 8.71. Besides, in test [3], the “Inhibition” value was 9.7 ± 4.1%.

For the compound `CN1CCCC1CCOC(=O)Nc1ccc(Cl)cc1-c1ccc(F)c(Cl)c1` (centres unmarked) [Example 73, 2-(1-Methylpyrrolidin-2-yl)ethyl(3′,5-dichloro-4′-fluoro-[1,1′-biphenyl]-2-yl)carbamate], the pKi in test [1] and in test [2] was 8.32 in each case. The “Inhibition” value in test [3] was 10.0 ± 1.0%.

For the compound `CN1CC[C@@H](COC(=O)Nc2ccc(F)cc2-c2cc(F)cc(F)c2)C1` [Example 95, (R)-(1-methylpyrrolidin-3-yl)methyl (3′,5,5′-trifluoro-[1,1′-biphenyl]-2-yl)carbamate], the pKi was 8.20 in test [1] and 9.12 in test [2]. Further, the “Inhibition” value in test [3] came out at 15.7 ± 0.8%.

Turning to `CN1CC[C@@H](COC(=O)Nc2ccccc2-c2cccc(Cl)c2)C1` [Example 117, (R)-(1-methylpyrrolidin-3-yl)methyl(3′-chloro-[1,1′-biphenyl]-2-yl)carbamate], the pKi in test [1] is 8.80; in test [2], 9.47. Moreover, in test [3], the “Inhibition” value worked out at 15.4 ± 0.1%.

Turning to `CN1CCC[C@H]1COC(=O)Nc1ccccc1-c1cccc(F)c1` [Example 160, (S)-(1-methylpyrrolidin-2-yl)methyl(3′-fluoro-[1,1′-biphenyl]-2-yl)carbamate], the negative-log Ki (pKi) in test [1] is 8.37. Further, the “Inhibition” value in test [3] turned out to be 15.5 ± 2.4%.

Take `CN1CCC[C@H]1COC(=O)Nc1ccccc1-c1cccc(Cl)c1` [Example 165, (S)-(1-methylpyrrolidin-2-yl)methyl(3′-chloro-[1,1′-biphenyl]-2-yl)carbamate]: in test [1], the negative-log Ki (pKi) is 9.20. Also, the “Inhibition” value in test [3] stood at 34.5 ± 2.5%.

With `CN1CCC[C@H]1COC(=O)Nc1ccc(F)cc1-c1cc(F)cc(F)c1` [Example 172, (S)-(1-methylpyrrolidin-2-yl)methyl(3′,5,5′-trifluoro-[1,1′-biphenyl]-2-yl)carbamate], in test [1], the pKi is 8.21. Also, the “Inhibition” value in test [3] is given as 12.4 ± 2.7%.

As for `CN1CCC[C@H]1COC(=O)Nc1ccc(F)cc1-c1ccc(Cl)c(Cl)c1` [Example 177, (S)-(1-methylpyrrolidin-2-yl)methyl (3′,4′-dichloro-5-fluoro-[1,1′-biphenyl]-2-yl)carbamate], the pKi in test [1] was 8.20. Further, the “Inhibition” value in test [3] is recorded as 11.3 ± 2.2%.

Consider `CN1CCC[C@H]1COC(=O)Nc1ccc(F)cc1-c1cccc(C(F)(F)F)c1` [Example 180, (S)-(1-methylpyrrolidin-2-yl)methyl(5-fluoro-3′-(trifluoromethyl)-[1,1′-biphenyl]-2-yl)carbamate], for which the pKi in test [1] was 8.04. The “Inhibition” value in test [3] worked out at 6.3 ± 1.3%.

As for `Cc1cccc(-c2cc(F)ccc2NC(=O)OC[C@@H]2CCN(C)C2)c1` [Example 192, (R)-(1-methylpyrrolidin-3-yl)methyl(5-fluoro-3′-methyl-[1,1′-biphenyl]-2-yl)carbamate], the pKi in test [1] was 8.34. Besides, the “Inhibition” value in test [3] was found to be 18.6 ± 3.6%.

For `CN1CCC[C@H]1COC(=O)Nc1ccccc1-c1ccccc1` [Example 197, (S)-(1-methylpyrrolidin-2-yl)-methyl [1,1′-biphenyl]-2-ylcarbamate], the negative logarithm of the Ki (pKi) in test [1] was 9.11. For the same compound, in test [3], the “Inhibition” value worked out at 32.8 ± 9.7%.

As for `CN1CCC[C@H]1COC(=O)Nc1ccccc1-c1ccc(F)cc1` [Example 198, (S)-(1-methylpyrrolidin-2-yl)methyl(4′-fluoro-[1,1′-biphenyl]-2-yl)carbamate], the pKi in test [1] was 8.73. Further, the “Inhibition” value in test [3] is listed as 26.3 ± 2.4%.

As to `Cc1cccc(-c2cc(F)ccc2NC(=O)OC[C@@H]2CCCN2C)c1` [Example 201, (S)-(1-methylpyrrolidin-2-yl)methyl (5-fluoro-3′-methyl-[1,1′-biphenyl]-2-yl)carbamate], the pKi in test [1] was 8.57. In addition, the “Inhibition” value in test [3] was 9.1 ± 3.0%.

With `CN1CCC[C@H]1COC(=O)Nc1ccc(F)cc1-c1cccc(F)c1` [Example 202, (S)-(1-methylpyrrolidin-2-yl)methyl (3′,5-difluoro-[1,1′-biphenyl]-2-yl)carbamate], the negative-log Ki (pKi) in test [1] is 8.66. Also, in test [3], the “Inhibition” value is 17.3 ± 1.3%.

Turning to `CN1CCC[C@H]1COC(=O)Nc1ccc(F)cc1-c1ccc(F)cc1` [Example 203, (S)-(1-methylpyrrolidin-2-yl)methyl (4′,5-difluoro-[1,1′-biphenyl]-2-yl)carbamate], in test [1], the pKi is 8.63. Moreover, in test [3], the “Inhibition” value came to 19.4 ± 4.0%.

Take `CN1CCC[C@H]1COC(=O)Nc1cc(F)ccc1-c1ccccc1` [Example 204, (S)-(1-methylpyrrolidin-2-yl)methyl (4-fluoro-[1,1′-biphenyl]-2-yl)carbamate]: the pKi in test [1] was 8.45. Besides, the “Inhibition” value in test [3] is 23.3 ± 6.6%.

Take `CN1CCC[C@H]1COC(=O)Nc1cc(F)ccc1-c1cccc(F)c1` [Example 205, (S)-(1-methylpyrrolidin-2-yl)methyl(3′,4-difluoro-[1,1′-biphenyl]-2-yl)carbamate]: the pKi in test [1] was 8.10. Further, the “Inhibition” value in test [3] stood at 11.9 ± 3.7%.
